The values that follow come from paper PMC10906247, “From Functional Fatty Acids to Potent and Selective Natural-Product-Inspired Mimetics via Conformational Profiling” (ACS Central Science, 2024).

One series addresses GPR40 (FFAR1) (Homo sapiens, UniProt O14842). Put plainly: PathHunter β-arrestin assay (Eurofins Discovery), GPR40. As to conditions: for GPR40 max. efficacy: oleic acid = 100. It counts as cell-based. As to the method:
(§1) With these compounds in hand, attention was directed at evaluating their properties as ligands to GPR40, GPR120,[24] and TLX. Initial profiling experiments were conducted targeting the GPCR targets at a single concentration (15 μM) in a commercially available β-arrestin assay.
(§2) Functional assays at GPR40 and GPR120 were conducted by Eurofins Discovery services using their PathHunter® b-Arrestin assay that monitors the activation of a GPCR in a homogenous, non-imaging assay format using a technology developed by DiscoverX called Enzyme Fragment Complementation (EFC) with b-galactosidase (b-Gal) as the functional reporter. b-Arrestin GPCR cell lines built on the principles of EFC are engineered to co-express the ProLinkTM (PK) tagged GPCR and the Enzyme Acceptor (EA) tagged b-Arrestin. Activation of the GPCR-PK induces b-Arrestin-EA recruitment, forcing complementation of the two b-galactosidase enzyme fragments (EA and PK). The resulting functional enzyme hydrolyzes substrate to generate chemiluminescent […]
(§3) Additional information can be found at: www.eurofinsdiscovery.com/solution/b-arrestin Below are dose-response curves generated from Eurofins Discovery services for activity of ligands depicted in Figure 6B at GPR40 (FFAR1) and GPR120. […]

The target of series [1] is T1, GPR120 (Homo sapiens, UniProt Q5NUL3).
T1 sequence (Q5NUL3 1-361): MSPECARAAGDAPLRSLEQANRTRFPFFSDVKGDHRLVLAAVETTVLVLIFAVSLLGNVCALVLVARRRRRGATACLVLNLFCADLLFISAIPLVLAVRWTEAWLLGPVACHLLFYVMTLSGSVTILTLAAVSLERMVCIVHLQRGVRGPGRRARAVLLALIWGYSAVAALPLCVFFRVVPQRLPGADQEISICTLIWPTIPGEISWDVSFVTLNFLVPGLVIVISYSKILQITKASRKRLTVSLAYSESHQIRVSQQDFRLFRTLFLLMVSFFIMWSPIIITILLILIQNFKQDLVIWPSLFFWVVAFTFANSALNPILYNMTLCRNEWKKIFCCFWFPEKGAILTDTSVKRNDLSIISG
The series can be described thus: PathHunter β-arrestin assay (Eurofins Discovery), GPR120. The series is classed as cell-based. As to conditions: for GPR120 max. efficacy: oleic acid = 100. The method, then: as §1, §2, §3

For series [2], the target named is T2, TLX ligand binding domain (Homo sapiens, UniProt Q9Y466).
T2 construct: purchased NovAliX SAS, Strasbourg, France
Put plainly: TLX ligand sensing assay (AlphaScreen, RIP140 NR box peptide recruitment). The series is classed as biochemical.

The nature of series [3]: Metabolic stability / intrinsic clearance in cryopreserved human hepatocytes. As to the method: To gain insight into potential metabolic issues, a preliminary assessment of 1-E and 3-C in a metabolic stability assay utilizing human hepatocytes was conducted.
7.1. ADME-Tox: In Vitro Metabolism
Intrinsic clearance (cr yopreserved hepatocytes, human)
Note: Unit of Clint is µ L/min/mg for microsomes, S9 and UGT assa ys; µL/min/pmol for CYP assays; µ L/min/Million cells for hepatocyte assays […]
8.1. Experimental Conditions
8.1.1. ADME-Tox: In Vitro Metabolism
8.2. Analysis and expression of results
8.2.1. ADME-Tox: In Vitro Metabolism
Intrinsic Clearance (microsomes, S9, cryopreserved hepatocytes, reco mbinant CYP, recombinant UGT) Metabolic stability, expressed as percent of the parent compound remaining , was calculated by comparing the peak area of the compound at the time point relative to that at time -0. The ha lf-life (T1/2) was estimated from the slope of the initial linear range of the logarithmic curve of compound remaining (%) vs. time, assu ming the first -order kinetics. The apparent intrinsic cleara nce (CLint, in µL/min/pmol, µL/min/mg or µL/min/Mcell ) was calculated according to the following formula: […]
T1/2*(mg protein/µL or million cells/µL or pmol CYP iso zyme/µL)

Another series relates to GPR40. As to conditions: read-out: GPR40 EC50 historical, cited from earlier work.
The test system of a further series is MIN6 cells. Details: method as in PMID 12629551, PMID 12496284. As to conditions: cited from earlier work.
In series [4] the target is T1, GPR120. Particulars: read-out: GPR120 EC50 historical; oleic acid; cited from earlier work.
The mark [5] stands for this setting: dose-response, β-arrestin assay, read-out: GPR40 EC50 measured.
[6] abbreviates: ALPHA normalized, supplement, read-out: TLX EC50 (dose-response curves).

Where “and” joins values, the source holds several entries; their conditions need not be identical. Equal values may be shown once. Read-outs that look alike come from different tables or passages of the source.

T2 sequence (Q9Y466 155-383 limits assumed): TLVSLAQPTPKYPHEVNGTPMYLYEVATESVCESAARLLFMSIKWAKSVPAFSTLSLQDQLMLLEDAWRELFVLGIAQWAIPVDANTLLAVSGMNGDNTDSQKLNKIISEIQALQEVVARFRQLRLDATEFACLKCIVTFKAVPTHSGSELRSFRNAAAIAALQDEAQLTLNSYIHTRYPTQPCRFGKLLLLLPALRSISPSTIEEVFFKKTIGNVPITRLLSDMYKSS
Sequence of GPR40 (FFAR1) (O14842 whole entry): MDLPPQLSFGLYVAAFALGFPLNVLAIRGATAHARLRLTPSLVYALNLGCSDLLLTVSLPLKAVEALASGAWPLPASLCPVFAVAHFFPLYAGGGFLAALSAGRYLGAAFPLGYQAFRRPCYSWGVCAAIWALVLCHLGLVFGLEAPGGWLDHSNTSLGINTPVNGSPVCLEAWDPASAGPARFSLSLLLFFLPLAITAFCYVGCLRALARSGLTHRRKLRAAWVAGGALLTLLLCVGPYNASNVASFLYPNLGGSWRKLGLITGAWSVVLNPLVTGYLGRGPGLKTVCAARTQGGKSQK

Broadly, the EC50 is the concentration needed to bring the measured effect to its halfway point. The hepatocyte CLint is the rate of metabolic loss divided by the concentration. Low values mean slow turnover, high ones rapid turnover. One may read the half-life as how long it takes for the measured level to halve. On to `CCCCCCCCC[C@H](C)/C=C(/C)C/C(C)=C/[C@H](C)CC(=O)O` [1-E], for which the “GPR40 potency relative to oleic acid” value on GPR40 (FFAR1) (EC50 ratio vs control oleic acid) was 14 times. Also, the EC50 on GPR40 (FFAR1) (setting [5]) was 2.6 µM; at GPR120 [1] (dose-response, β-arrestin assay, read-out: GPR120 EC50 measured), above 47 µM; in series [2] (setting [6]) it was 1.68 µM. This compound yielded a GPR40 max. efficacy on GPR40 (FFAR1) (dose-response) of 75%. This compound also came in with a GPR120 max. efficacy on GPR120 [1] (maximal efficacy measured at 100 μM) of 32%. Also, in series [3] (human hepatocytes, 1.0E-06 M, listed as GCM/LEM 1-E), the “Half-life, single replicates (1st, 2nd, 3rd)” value is 3.445 h and 2.168 h and 4.453 h. In addition, the intrinsic metabolic clearance (hepatocyte CLint) at 1 µM in series [3] (human, cryopreserved human hepatocytes) stood at 5.4 µL/min/1e6 cells. In addition, in series [3] (human, cryopreserved human hepatocytes, Half-life (mean), human hepatocytes, 1.0E-06 M), the half-life at 1 µM stood at 3.35 h. Besides, the “% Compound Remaining, mean” value is 96 % remaining in series [3] (incubation 30 minutes, 1.0E-06 M); 98 % remaining in series [3] (incubation 60 minutes, 1.0E-06 M); 85 % remaining in series [3] (incubation 90 minutes, 1.0E-06 M); 61 % remaining in series [3] (incubation 120 minutes, 1.0E-06 M). Also, the “% Compound Remaining, single replicates (1st, 2nd, 3rd)” value in series [3] (incubation 30 minutes, 1.0E-06 M, listed as GCM/LEM 1-E) was 99.4 % remaining and 103.0 % remaining and 86.6 % remaining; in series [3] (incubation 60 minutes, 1.0E-06 M, listed as GCM/LEM 1-E), 83.9 % remaining and 103.8 % remaining and 106.9 % remaining; in series [3] (incubation 90 minutes, 1.0E-06 M, listed as GCM/LEM 1-E), 79.1 % remaining and 80.4 % remaining and 96.1 % remaining; in series [3] (incubation 120 minutes, 1.0E-06 M, listed as GCM/LEM 1-E), 67.8 % remaining and 50.9 % remaining and 64.3 % remaining.

With `O=C(O)CCc1ccc(NCc2cccc(Oc3ccccc3)c2)cc1` [GW9508, reference compound], the concentration giving a half-maximal response (EC50) was 1 µM on GPR40 (FFAR1) (setting [5]); 1.5 µM and 0.98 µM and 0.7 µM on GPR40 (FFAR1) (three independent assays behind the average, read-out: GPR40 EC50, independent assays); 0.047 µM in the series with GPR40 (GW9508). Further, the GPR40 max. efficacy on GPR40 (FFAR1) (dose-response) was 229%. In addition, the GPR120 max. efficacy at GPR120 [1] (dose-response) is listed as 87%.

For the compound `CCCCCCCC/C=C\CCCCCCCC(=O)O` [oleic acid, reference compound], the EC50 at GPR40 (FFAR1) (GPR40 EC50 measured) is 37 µM; at GPR120 [1] (GPR120 EC50 measured) it was 15 µM; in series [2] it was 3.55 µM; in series [2] (setting [6]) it was 3.55 µM; in series [2] (coactivator recruitment, read-out: TLX EC50), 3.6 µM; with GPR40 (oleic acid, stimulatory activity on CHO-mGPR40 cells), 2 µM. Besides, the 50% effective concentration (EC50) on GPR120 [4] was 12 µM. At GPR40 (FFAR1) (dose-response), this compound yielded a GPR40 max. efficacy of 100%. In addition, on GPR40 (FFAR1) (measured vs historical EC50), the “right shift of GPR40 result relative to reported historical activity” value is given as around 20 fold. Moreover, the GPR120 max. efficacy on GPR120 [1] (dose-response) worked out at 100%. The “enhanced recruitment of a coactivator protein fragment” value in series [2] worked out at 8.4 fold. In addition, the TLX max. efficacy in series [2] (oleic acid = 100) is recorded as 100%. For the same compound, the “concentration inducing insulin secretion” value with MIN6 cells is at least 1 µM.
